According to PMC3066593, “Liposomal Tumor Targeting in Drug Delivery Utilizing MMP-2- and MMP-9-Binding Ligands” (Journal of Drug Delivery, 2010):
Positions of bridges follow the written chain, without caps; N, C: chain ends. Residues, ends and D or L forms follow the SMILES beside them.

Experiments:
[1] = Hepatic accumulation of 125I-labelled peptides in normal mice; format: in vivo
Description: Radiolabeling of peptides and all liposomal formulations with iodine-125 (^125I) was performed using the IODOGEN (Pierce, Rockford, IL). The CTT2-PEG3400-DSPE peptide was labeled with ^125I using iodogen as a catalyst. 5 MBq of Na125I (Amersham, Buckinghamshire, England) in 0.5 ml PBS was added to a tube containing 10 μg dried iodogen and 100 μg CTT2-PEG3400-DSPE peptide construct. The mixture was incubated for 20 min at room temperature. The ^125I-bound particle fractions were purified by elution from PD-10 columns. The activity of the peptide was determined in a gamma counter (Cobra II, Packard Instruments).
Following single i.v. tracer doses of purified ^125I-CTT1-peptide (∼40 μg/mouse), ^125I-CTT2-peptide (∼40 μg/mouse), or CTT2-micelles (200 μg/mouse; 200 kBq), the percentage of the injected dose per gram of tissue (%ID/g) values, corrected for radioactive decay to the time of injection, were measured in tumor and major tissues/organs (heart, liver, kidney, lung, muscle, brain, spleen, and tumor) by sacrificing groups of normal mice or mice bearing serous ovarian hindleg xenografts (OV-90) at specified time points.

A2780 xenografts = experiment: Therapeutic efficacy (survival) in subcutaneous A2780 xenografts; format: in vivo, NMRI nude mice; conditions: 9 mg/kg i.v.
Description: (§1) Therapeutic efficacy studies were conducted in subcutaneous A2780 xenografts using doxorubicin, administered as either CTT2-SL liposomes or Caelyx. Commercially available nonliposomal (“free”) drug (i.e., doxorubicin) and saline dilution buffer were used as treatment controls. A2780 ovarian cancer cells (5×10^6 in 100 μl PBS) were injected subcutaneously into the posterior flanks of NMRI nude mice (n = 40). Mice received i.v. bolus injections of CTT2-SL liposome, Caelyx, doxorubicin, and buffer. CTT2-SL liposomes were injected when tumor volumes reached 65 mm^3, while administration of Caelyx and doxorubicin to different xenograft mice was offset in time from CTT2-SL liposomes by 3 and 6 days, respectively. Doxorubicin, CTT2-SL liposomes, and Caelyx were injected at doses of 9 mg/kg each. Mouse body weights were monitored throughout the study period.

[2] = Mouse body weight during efficacy study; format: in vivo, NMRI nude mice; conditions: at day 9; 9 mg/kg doxorubicin equivalents at day 0, 3 and 6; mean of 9 mice; weights returned to initial levels one week later
Description: as §1

CC(C)C[C@@H]1NC(=O)[C@H]([C@@H](C)O)NC(=O)[C@H](Cc2ccccc2)NC(=O)CNC(=O)[C@H](Cc2c[nH]c3ccccc23)NC(=O)[C@H](Cc2c[nH]cn2)NC(=O)[C@H]([C@@H](C)O)NC(=O)[C@H]([C@@H](C)O)NC(=O)[C@@H](N)CSSC[C@@H](C(=O)O)NC1=O [CTT1-peptide] (H-CTTHWGFTLC-OH; disulfide 1-10)
Liver accumulation of peptide per gram of tissue relative to muscle ([1]; nontumor-bearing normal mice, n = 5, single i.v. tracer dose ~40 μg/mouse, 125I label, compared between CTT1- and CTT2-peptide (Figure 4)): greater liver accumulation

CC(C)C[C@@H]1NC(=O)[C@H]([C@@H](C)O)NC(=O)[C@H](Cc2ccccc2)NC(=O)CNC(=O)[C@H](Cc2c[nH]c3ccccc23)NC(=O)[C@H](Cc2c[nH]cn2)NC(=O)[C@H]([C@@H](C)O)NC(=O)[C@H]([C@@H](C)O)NC(=O)[C@@H](NC(=O)CNC(=O)[C@H](Cc2c[nH]cn2)NC(=O)[C@H](Cc2ccc(O)cc2)NC(=O)[C@H](CC(N)=O)NC(=O)[C@H](CCC(=O)O)NC(=O)[C@H](CCCNC(=N)N)NC(=O)CN)CSSC[C@@H](C(N)=O)NC1=O [CTT2-peptide] (H-GRENYHGCTTHWGFTLC-NH2; disulfide 8-17)
Hepatic clearance ([1]; normal mice, compared with CTT1-peptide): more rapid hepatic clearance

COc1cccc2c1C(=O)c1c(O)c3c(c(O)c1C2=O)C[C@@](O)(C(=O)CO)C[C@@H]3O[C@H]1C[C@H](N)[C@H](O)[C@H](C)O1 [Doxorubicin, doxorubicin]
Day at which live mice with tumor size exceeding 1000 mm^3 were sacrificed (A2780 xenografts): 24 days
Maximum body weight loss [2]: about 10%
